These results are taken from ChEMBL document CHEMBL1133977, “Robinlin: a novel bioactive homo-monoterpene from Robinia pseudoacacia L. (Fabaceae)” (Bioorg Med Chem Lett, 2001).

Values after ≈ are worked out from the molar mass of the structure shown.

One data set has as its system A498. Kind of data set: In vitro cytotoxic activity against A-498 (human kidney carcinoma) cell line. The note with it: read-out: ED50 (the source's name). The data set is classed as functional.
Another data set has as its system A549. As to the kind of experiment: In vitro cytotoxic activity against A-549 (human lung carcinoma) cell line. Type of data set: functional. The note with it: read-out: ED50 (the source's name).
The test system of another data set is HT-29. Kind of data set: In vitro cytotoxic activity against HT-29 (human colon adenocarcinoma) cell line. The data set is classed as functional. Particulars: read-out: ED50 (the source's name).
For a further data set, the system named is MCF7. As to the kind of experiment: In vitro cytotoxic activity against MCF-7 (human breast carcinoma) cell line. The data set is classed as functional. Particulars: read-out: ED50 (the source's name).
In a further data set the test system is MIA PaCa-2. Kind of data set: In vitro cytotoxic activity against PACA-2 (human pancreatic carcinoma) cell line. The data set is classed as functional. Particulars: read-out: ED50 (the source's name).
The next data set has as its system PC-3. As to the kind of experiment: In vitro cytotoxic activity against PC-3 (human prostate adenocarcinoma) cell line. The note with it: read-out: ED50 (the source's name). Type of data set: functional.
Data set [1] is described as follows: Activity in brine shrimp lethality test (BST). Particulars: artemia, in vivo. The data set is classed as organism-based.

Usually LC50 stands for the concentration lethal to half of the exposed cells or organisms. A lower LC50 goes with a more lethal substance. Turning to `CC1=C(CCO)C(C)(C)C[C@@H](O)C1=O`, the EC50 was over 100000 ng/mL in the data set on A498; 47000 ng/mL (≈ 237 µM) in the data set on A549; 52000 ng/mL (≈ 262 µM) with HT-29; 46000 ng/mL (≈ 232 µM) in the data set with MCF7; over 100000 ng/mL in the data set with MIA PaCa-2; over 100000 ng/mL with PC-3. For the same compound, the 50% lethal concentration (LC50) in data set [1] was 4900 ng/mL (≈ 24.7 µM).
`COc1cccc2c1C(=O)c1c(O)c3c(c(O)c1C2=O)C[C@@](O)(C(=O)CO)C[C@@H]3O[C@H]1C[C@H](N)[C@H](O)[C@H](C)O1` [DOXORUBICIN]: the EC50 came out at 0.46 ng/mL (≈ 0.000846 µM) in the data set on A498; 0.21 ng/mL (≈ 0.000386 µM) in the data set with A549; 1.3 ng/mL (≈ 0.00239 µM) in the data set with HT-29; 5.8 ng/mL (≈ 0.0107 µM) in the data set with MCF7; 0.18 ng/mL (≈ 0.000331 µM) with MIA PaCa-2; 0.24 ng/mL (≈ 0.000442 µM) in the data set on PC-3.
